One assay has as its system SK-OV-3. Kind of assay: SK-OV-3 Cell Migration Inhibition. It is filed as cell-based. To be noted: several values in a cell are repeat determinations.
Another assay addresses T1, EGFR (Homo sapiens, UniProt P00533).
T1 construct: started at nucleotide 2189 (corresponding to amino acid 667) and ended at the termination codon; made in house; host or cells: Sf9 insect cells (baculovirus)
The assay can be described thus: EGFR Kinase Assay. It is filed as biochemical. To be noted: GST-EGFR, 5 μM ATP. In outline: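 Baculovirus/Sf9-expressed GST-EGFR with biotinylated polyGluTyr substrate, 5 μM ATP plus γ-33P-ATP, in 50 mM Tris pH 8.0, 10 mM MgCl2, 0.1 mM vanadate, 1 mM DTT; 1 h at 30 °C.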

[1] abbreviates: Homo sapiens, SK-OV-3, SK-OV-3 migration.

pIC50: −log10 of the molar value. Several values for one entry are separate records, joined by “and”; a condition that tells them apart may be missing. Equal entries are not always repeated.

By pIC50 is commonly meant −log10 of the IC50, conventionally taken in molar units.

T1 sequence (P00533 667-1210 limits assumed): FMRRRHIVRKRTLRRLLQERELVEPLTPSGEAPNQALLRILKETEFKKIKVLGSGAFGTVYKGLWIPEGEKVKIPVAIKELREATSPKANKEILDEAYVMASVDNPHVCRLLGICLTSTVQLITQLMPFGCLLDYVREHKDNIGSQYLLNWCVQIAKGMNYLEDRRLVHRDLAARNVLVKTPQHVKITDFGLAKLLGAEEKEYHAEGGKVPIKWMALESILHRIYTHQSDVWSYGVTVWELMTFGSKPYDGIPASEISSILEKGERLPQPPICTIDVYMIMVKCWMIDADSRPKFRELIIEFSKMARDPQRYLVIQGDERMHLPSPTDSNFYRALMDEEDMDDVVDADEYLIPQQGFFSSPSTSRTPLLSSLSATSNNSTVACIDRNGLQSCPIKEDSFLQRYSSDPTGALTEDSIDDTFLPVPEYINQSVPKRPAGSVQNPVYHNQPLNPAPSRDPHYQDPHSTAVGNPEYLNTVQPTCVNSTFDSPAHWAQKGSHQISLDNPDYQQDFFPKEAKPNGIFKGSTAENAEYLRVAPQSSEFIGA

As for `C#Cc1cccc(Nc2ncnc3nc(Nc4ccc(S(=O)(=O)N(CCOC)CCOC)cc4)sc23)c1` [Cpd 33, 4-[7-(3-ethynyl-phenylamino)-thiazolo[4,5-d]pyrimidin-2-ylamino]-N,N-bis-(2-methoxy-ethyl)-benzenesulfonamide], the pIC50 with SK-OV-3 (setting [1]) was 6.60; against EGFR, 7.60. Take `COCCN(CCOC)Cc1ccc(Nc2nc3ncnc(Nc4ccc(F)c(Cl)c4)c3s2)cc1` [Cpd 34, N^2-(4-{[bis-(2-methoxy-ethyl)-amino]-methyl}-phenyl)-N^7-(3-chloro-4-fluoro-phenyl)-thiazolo[4,5-d]pyrimidine-2,7-diamine]: the pIC50 is 6.68 in the assay with SK-OV-3 (setting [1]) and 8.19 against EGFR. `Fc1ccc(Nc2ncnc3nc(Nc4ccc(CCN5CCOCC5)cc4)sc23)cc1Cl` [Cpd 4, N^7-(3-chloro-4-fluoro-phenyl)-N^2-[4-(2-morpholin-4-yl-ethyl)-phenyl]-thiazolo[4,5-d]pyrimidine-2,7-diamine]: the pIC50 in the assay on SK-OV-3 (setting [1]) was 6.13; in the assay on SK-OV-3 (SK-OV-3 migration), 6.28; on EGFR it was 7.66. For the molecule `C#Cc1cccc(Nc2ncnc3nc(Nc4ccc(CN5CCOCC5)cc4)sc23)c1` [Cpd 35, N^7-(3-ethynyl-phenyl)-N^2-(4-morpholin-4-ylmethyl-phenyl)-thiazolo[4,5-d]pyrimidine-2,7-diamine], the figures for the pIC50 in the assay with SK-OV-3 (setting [1]), with SK-OV-3 (SK-OV-3 migration) and against EGFR were 6.32, 6.42 and 7.52, respectively.

For the molecule `CN(C)CCCNS(=O)(=O)c1ccc(Nc2nc3ncnc(Nc4ccc(F)c(Cl)c4)c3s2)cc1` [Cpd 31, 4-[7-(3-chloro-4-fluoro-phenylamino)-thiazolo[4,5-d]pyrimidin-2-ylamino]-N-(3-dimethylamino-propyl)-benzenesulfonamide], the pIC50 in the assay on SK-OV-3 (setting [1]) was 6.86; in the assay with SK-OV-3 (SK-OV-3 migration), 6.74 and 6.72; on EGFR, 7.99.

Regarding `NS(=O)(=O)c1ccc(Nc2nc3ncnc(Nc4cccc(Cl)c4)c3s2)cc1` [Cpd 74, 4-[7-(3-chloro-phenylamino)-thiazolo[4,5-d]pyrimidin-2-ylamno]-benzenesulfonamide], the negative logarithm of the IC50 (pIC50) against EGFR is 8.18.

`Fc1ccc(Nc2ncnc3nc(Nc4ccc(Cn5ccnc5)cc4)sc23)cc1Cl` [Cpd 23, N^7-(3-chloro-4-fluoro-phenyl)-N^2-(4-imidazol-1-ylmethyl-phenyl)-thiazolo[4,5-d]pyrimidine-2,7-diamine] had a pIC50 against EGFR of 8.20. On EGFR, `Clc1cccc(Nc2ncnc3nc(Nc4ccc(Cc5ccncc5)cc4)sc23)c1` [Cpd 9, N^7-(3-chloro-phenyl)-N^2-(4-pyridin-4-ylmethyl-phenyl)-thiazolo[4,5-d]pyrimidine-2,7-diamine] had a negative logarithm of the IC50 (pIC50) of 7.74. On EGFR, `Fc1ccc(Nc2ncnc3nc(Nc4cccc(CN5CCOCC5)c4)sc23)cc1Cl` [Cpd 3, N^7-(3-chloro-4-fluoro-phenyl)-N^2-(3-morpholin-4-ylmethyl-phenyl)-thiazolo[4,5-d]pyrimidine-2,7-diamine] showed a pIC50 of 6.92. Compared with the last molecule, the pIC50 is 0.82 log units lower. `N#Cc1ccc(Nc2nc3ncnc(Nc4ccc(F)c(Cl)c4)c3s2)cc1` [Cpd 92, 4-[7-(3-chloro-4-fluoro-phenylamino)-thiazolo[4,5-d]pyrimidin-2-ylamino]-benzonitrile]: at EGFR, the pIC50 is 7.81.

With `C#Cc1cccc(Nc2ncnc3nc(Nc4ccc(CCN5CCOCC5)cc4)sc23)c1` [Cpd 50, N^7-(3-ethynyl-phenyl)-N^2-[4-(2-morpholin-4-yl-ethyl)-phenyl]-thiazolo[4,5-d]pyrimidine-2,7-diamine], at EGFR, the pIC50 was 7.89. `CCOC(=O)N1CCN(Cc2ccc(Nc3nc4ncnc(Nc5ccc(F)c(Cl)c5)c4s3)cc2)CC1` [Cpd 28, 4-{4-[7-(3-chloro-4-fluoro-phenylamino)-thiazolo[4,5-d]pyrimidin-2-ylamino]-benzyl}-piperazine-1-carboxylic acid ethyl ester] showed a pIC50 against EGFR of 7.24. Regarding `Brc1cccc(Nc2ncnc3nc(Nc4ccccc4)sc23)c1` [Cpd 90, N^7-(3-bromo-phenyl)-N^2-phenyl-thiazolo[4,5-d]pyrimidine-2,7-diamine], at EGFR, the pIC50 is 7.78.

These data come from patent US7605154B2, “Substituted Thiazolo [4,5-d]pyrimidines as protein kinase inhibitors” (Janssen Pharmaceutica N.V., priority 2005, dated 2009).
